pEC50, pIC50, pKd: −log10 of the molar value.
What was measured:
[1] = Binding affinity to microtubule by spectrofluorometry
A2780 [2] = experiment: Ratio of compound IC50 to Paclitaxel IC50 for human A2780 cells; format: functional
[3] = Effect on bovine brain tubulin assembly by spectrophotometry; design: species or system Bos taurus
A2780 [4] = experiment: Cytotoxicity against human A2780 cells after 2 days by Alamar blue assay; format: functional, cell-based; conditions: A2780, 48 h

| pKd [1] | pEC50 [3] | Structure (SMILES) | Ratio IC50 (A2780 [2]) | pIC50 (A2780 [4]) |
| --- | --- | --- | --- | --- |
| 4.62 | 5.28 | CCCC[C@H](C)[C@H](OC(N)=O)[C@@H](C)[C@H](O)[C@@H](C)C/C(C)=C\[C@H](C)[C@@H](O)[C@@H](C)/C=C\[C@@H](O)CCOC(=O)c1cccc(N(C)C)c1 | 386 | 5.27 |
| 7.82 | 6.31 | CC(=O)O[C@H]1C(=O)[C@@]2(C)[C@H]([C@H](OC(=O)c3ccccc3)[C@]3(O)C[C@H](OC(=O)[C@H](O)[C@@H](NC(=O)c4ccccc4)c4ccccc4)C(C)=C1C3(C)C)[C@]1(OC(C)=O)CO[C@@H]1C[C@@H]2O [PACLITAXEL] | – | – |

From ChEMBL document CHEMBL1817598, “Design, synthesis and biological evaluation of a simplified fluorescently labeled discodermolide as a molecular probe to study the binding of discodermolide to tubulin” (Bioorg Med Chem, 2011)
